The text below walks through data of ChEMBL document CHEMBL4507319 (2021).

Test [1] has as its target Serine/threonine-protein kinase PAK 4 (Homo sapiens) (UniProt O96013). The note with it: Compound concentration 1000.0 nM.
Test [2] addresses Alpha-1A adrenergic receptor (Homo sapiens) (UniProt P35348). The settings on record: Compound concentration 10.0 uM.
The target in test [3] is T1, Ephrin type-B receptor 4 (Homo sapiens) (UniProt P54760).
T1 sequence (whole entry): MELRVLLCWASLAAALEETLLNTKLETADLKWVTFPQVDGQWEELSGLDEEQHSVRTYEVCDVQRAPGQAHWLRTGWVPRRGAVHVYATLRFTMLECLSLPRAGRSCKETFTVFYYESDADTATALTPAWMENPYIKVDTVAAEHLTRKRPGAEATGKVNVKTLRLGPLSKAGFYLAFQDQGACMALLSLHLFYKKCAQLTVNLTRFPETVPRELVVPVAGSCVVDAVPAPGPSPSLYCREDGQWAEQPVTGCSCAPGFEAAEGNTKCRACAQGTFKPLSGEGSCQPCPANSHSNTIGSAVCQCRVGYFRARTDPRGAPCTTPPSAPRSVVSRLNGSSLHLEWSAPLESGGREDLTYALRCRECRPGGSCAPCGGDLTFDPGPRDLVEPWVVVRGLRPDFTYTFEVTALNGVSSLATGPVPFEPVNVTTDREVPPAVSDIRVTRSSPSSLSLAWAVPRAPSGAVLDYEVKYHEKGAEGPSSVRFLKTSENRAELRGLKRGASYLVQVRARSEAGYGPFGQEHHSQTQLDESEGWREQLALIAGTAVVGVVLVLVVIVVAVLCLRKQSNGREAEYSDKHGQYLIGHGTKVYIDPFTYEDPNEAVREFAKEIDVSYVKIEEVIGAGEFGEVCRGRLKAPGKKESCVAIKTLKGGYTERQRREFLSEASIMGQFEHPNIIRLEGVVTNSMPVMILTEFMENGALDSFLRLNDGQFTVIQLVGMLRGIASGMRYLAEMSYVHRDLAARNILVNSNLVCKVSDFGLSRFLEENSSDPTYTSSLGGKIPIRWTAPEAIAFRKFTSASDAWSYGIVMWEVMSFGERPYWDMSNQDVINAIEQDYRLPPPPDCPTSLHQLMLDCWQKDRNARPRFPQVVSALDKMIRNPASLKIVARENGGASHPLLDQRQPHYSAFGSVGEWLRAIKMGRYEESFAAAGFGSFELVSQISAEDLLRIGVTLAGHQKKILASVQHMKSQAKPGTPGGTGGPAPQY
The note with it: Compound concentration 1000.0 nM.

Test [4] concerns the target T2, Mitogen-activated protein kinase kinase kinase 5 (Homo sapiens) (UniProt Q99683).
T2 sequence (whole entry): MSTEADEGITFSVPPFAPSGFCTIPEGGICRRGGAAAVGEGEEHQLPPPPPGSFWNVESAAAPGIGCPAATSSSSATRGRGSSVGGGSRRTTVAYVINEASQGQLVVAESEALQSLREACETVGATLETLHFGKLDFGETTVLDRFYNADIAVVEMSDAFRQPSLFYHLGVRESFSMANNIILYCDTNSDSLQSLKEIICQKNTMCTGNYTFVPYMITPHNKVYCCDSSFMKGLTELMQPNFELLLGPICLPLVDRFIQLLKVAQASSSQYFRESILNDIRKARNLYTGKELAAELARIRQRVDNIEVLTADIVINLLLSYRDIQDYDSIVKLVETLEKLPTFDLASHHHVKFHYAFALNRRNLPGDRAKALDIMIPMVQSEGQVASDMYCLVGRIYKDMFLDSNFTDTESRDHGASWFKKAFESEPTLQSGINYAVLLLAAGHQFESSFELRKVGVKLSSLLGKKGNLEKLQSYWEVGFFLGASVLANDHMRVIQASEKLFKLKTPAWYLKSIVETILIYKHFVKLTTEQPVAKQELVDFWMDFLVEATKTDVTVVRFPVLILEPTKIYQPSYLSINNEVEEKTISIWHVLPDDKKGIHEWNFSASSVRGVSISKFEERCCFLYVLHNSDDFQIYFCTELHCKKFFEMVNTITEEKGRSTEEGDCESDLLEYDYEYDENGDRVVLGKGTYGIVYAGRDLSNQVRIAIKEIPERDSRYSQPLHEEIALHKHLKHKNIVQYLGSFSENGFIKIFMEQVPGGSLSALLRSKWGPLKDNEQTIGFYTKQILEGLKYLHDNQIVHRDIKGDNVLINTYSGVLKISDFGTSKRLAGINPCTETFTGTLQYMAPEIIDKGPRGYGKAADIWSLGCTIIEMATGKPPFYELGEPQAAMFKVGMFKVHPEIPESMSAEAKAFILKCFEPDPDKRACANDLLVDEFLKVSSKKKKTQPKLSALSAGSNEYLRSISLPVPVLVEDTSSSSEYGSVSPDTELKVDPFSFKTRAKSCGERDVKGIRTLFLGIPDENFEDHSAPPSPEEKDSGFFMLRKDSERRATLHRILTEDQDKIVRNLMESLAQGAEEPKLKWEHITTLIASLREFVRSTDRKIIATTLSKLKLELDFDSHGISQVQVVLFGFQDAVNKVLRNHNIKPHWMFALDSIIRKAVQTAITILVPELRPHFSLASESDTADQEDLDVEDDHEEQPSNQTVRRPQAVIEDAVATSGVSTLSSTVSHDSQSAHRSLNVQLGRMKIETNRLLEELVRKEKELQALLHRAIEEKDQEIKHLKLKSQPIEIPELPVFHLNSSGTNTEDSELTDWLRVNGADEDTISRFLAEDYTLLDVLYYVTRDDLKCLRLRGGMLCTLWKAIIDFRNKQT
The settings on record: Compound concentration 1000.0 nM.

Test [5] has as its target Phosphorylase b kinase regulatory subunit alpha, liver isoform (Homo sapiens) (UniProt P46019). The settings on record: Compound concentration 1000.0 nM.
The test system of test [6] is Receptor-type tyrosine-protein kinase FLT3 (Homo sapiens), P36888 [D835H]. The note with it: Compound concentration 1000.0 nM.
Test [7] concerns the target Tyrosine-protein kinase FRK (Homo sapiens) (UniProt P42685). The note with it: Compound concentration 1000.0 nM.
Test [8] concerns the target Serine/threonine-protein kinase 26 (Homo sapiens) (UniProt Q9P289). The note with it: Compound concentration 1000.0 nM.
The target of test [9] is TGF-beta receptor type-2 (Homo sapiens) (UniProt P37173). The note with it: Compound concentration 1000.0 nM.
Chain of TGF-beta receptor type-2 (Homo sapiens) (P37173 whole entry): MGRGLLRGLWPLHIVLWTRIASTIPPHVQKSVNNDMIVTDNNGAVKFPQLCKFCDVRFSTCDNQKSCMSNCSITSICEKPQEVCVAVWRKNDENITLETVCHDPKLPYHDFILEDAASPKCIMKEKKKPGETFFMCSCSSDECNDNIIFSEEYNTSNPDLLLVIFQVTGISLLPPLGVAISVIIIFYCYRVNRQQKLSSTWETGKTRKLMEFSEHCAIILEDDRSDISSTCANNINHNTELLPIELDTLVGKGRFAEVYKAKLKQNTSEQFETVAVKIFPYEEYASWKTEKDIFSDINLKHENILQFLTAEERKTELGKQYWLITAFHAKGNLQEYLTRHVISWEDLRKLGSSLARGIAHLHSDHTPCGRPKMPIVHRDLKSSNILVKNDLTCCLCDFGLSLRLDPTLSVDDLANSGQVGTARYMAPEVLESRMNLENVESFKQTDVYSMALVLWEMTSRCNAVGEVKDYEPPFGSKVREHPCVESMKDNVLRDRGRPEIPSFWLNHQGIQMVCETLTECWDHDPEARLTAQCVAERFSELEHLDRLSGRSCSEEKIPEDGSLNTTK

Chain of Tyrosine-protein kinase FRK (Homo sapiens) (P42685 whole entry): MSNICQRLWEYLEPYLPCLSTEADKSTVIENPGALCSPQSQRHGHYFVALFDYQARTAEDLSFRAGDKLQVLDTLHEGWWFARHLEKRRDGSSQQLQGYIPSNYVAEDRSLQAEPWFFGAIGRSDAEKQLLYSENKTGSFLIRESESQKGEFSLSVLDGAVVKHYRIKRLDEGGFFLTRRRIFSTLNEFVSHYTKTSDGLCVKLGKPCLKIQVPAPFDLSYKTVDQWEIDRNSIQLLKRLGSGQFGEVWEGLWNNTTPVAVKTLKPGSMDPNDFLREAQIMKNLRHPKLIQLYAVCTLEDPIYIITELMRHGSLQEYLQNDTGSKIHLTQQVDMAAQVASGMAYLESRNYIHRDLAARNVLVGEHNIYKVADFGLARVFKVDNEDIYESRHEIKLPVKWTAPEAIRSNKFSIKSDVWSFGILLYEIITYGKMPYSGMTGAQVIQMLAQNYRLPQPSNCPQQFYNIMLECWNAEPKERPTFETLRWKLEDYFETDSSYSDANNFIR
Chain of Serine/threonine-protein kinase 26 (Homo sapiens) (Q9P289 2-416 limits assumed): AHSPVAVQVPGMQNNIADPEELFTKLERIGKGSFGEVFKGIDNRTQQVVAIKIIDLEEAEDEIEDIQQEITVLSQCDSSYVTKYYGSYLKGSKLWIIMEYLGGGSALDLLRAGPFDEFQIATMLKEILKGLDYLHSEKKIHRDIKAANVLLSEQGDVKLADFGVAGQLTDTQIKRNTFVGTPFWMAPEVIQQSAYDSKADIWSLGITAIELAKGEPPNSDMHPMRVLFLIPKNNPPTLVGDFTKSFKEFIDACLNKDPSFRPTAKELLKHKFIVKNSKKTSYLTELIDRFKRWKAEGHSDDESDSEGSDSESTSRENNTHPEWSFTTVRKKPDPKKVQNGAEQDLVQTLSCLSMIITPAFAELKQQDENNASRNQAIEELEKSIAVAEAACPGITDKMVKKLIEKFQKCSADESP
Chain of Phosphorylase b kinase regulatory subunit alpha, liver isoform (Homo sapiens) (P46019 whole entry, canonical isoform): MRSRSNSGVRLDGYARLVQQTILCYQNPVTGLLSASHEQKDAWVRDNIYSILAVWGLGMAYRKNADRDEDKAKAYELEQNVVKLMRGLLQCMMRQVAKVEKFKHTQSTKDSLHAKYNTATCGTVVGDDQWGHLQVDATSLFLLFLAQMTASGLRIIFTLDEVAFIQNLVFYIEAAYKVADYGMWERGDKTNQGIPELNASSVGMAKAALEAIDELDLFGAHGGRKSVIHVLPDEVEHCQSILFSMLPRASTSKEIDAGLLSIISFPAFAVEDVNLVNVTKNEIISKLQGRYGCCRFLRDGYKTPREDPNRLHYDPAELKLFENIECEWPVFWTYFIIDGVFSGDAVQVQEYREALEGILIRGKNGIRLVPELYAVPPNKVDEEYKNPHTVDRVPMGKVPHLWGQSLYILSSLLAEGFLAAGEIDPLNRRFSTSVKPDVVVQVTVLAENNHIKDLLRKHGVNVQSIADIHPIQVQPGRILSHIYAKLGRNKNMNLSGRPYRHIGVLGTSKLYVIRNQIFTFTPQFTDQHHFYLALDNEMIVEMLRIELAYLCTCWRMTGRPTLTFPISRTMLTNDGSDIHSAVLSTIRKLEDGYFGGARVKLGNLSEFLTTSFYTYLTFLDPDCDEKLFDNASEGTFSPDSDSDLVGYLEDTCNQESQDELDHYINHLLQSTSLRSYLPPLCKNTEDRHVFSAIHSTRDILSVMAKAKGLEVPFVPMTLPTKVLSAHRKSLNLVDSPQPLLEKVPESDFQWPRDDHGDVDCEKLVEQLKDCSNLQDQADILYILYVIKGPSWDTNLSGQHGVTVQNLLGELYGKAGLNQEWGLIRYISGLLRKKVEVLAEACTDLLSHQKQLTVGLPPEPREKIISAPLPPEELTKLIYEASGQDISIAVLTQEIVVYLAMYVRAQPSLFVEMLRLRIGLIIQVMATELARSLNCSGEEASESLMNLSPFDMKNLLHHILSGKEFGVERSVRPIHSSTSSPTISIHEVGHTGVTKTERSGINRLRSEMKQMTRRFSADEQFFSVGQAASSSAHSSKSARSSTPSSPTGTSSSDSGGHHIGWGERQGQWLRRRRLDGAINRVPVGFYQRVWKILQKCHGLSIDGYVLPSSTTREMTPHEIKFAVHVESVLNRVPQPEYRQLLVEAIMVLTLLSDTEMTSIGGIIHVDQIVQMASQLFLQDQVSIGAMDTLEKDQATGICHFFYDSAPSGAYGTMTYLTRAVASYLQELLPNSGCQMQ
Chain of Serine/threonine-protein kinase PAK 4 (Homo sapiens) (O96013 whole entry, looked up): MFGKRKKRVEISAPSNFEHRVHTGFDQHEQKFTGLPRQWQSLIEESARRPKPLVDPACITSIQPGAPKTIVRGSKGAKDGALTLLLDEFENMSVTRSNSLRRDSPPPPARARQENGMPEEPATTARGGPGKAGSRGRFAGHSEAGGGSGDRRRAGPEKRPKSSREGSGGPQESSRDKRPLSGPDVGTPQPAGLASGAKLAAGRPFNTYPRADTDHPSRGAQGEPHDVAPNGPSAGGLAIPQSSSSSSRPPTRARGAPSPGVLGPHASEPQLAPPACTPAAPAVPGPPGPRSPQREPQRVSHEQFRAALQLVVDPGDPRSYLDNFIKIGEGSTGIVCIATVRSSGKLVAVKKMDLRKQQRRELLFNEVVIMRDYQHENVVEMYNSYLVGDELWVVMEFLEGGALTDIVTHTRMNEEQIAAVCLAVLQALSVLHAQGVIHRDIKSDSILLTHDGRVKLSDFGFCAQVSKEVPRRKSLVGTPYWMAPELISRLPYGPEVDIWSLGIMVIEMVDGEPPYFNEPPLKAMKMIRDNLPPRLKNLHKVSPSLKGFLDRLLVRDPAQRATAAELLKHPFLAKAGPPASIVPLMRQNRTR
Chain of Alpha-1A adrenergic receptor (Homo sapiens) (P35348 whole entry): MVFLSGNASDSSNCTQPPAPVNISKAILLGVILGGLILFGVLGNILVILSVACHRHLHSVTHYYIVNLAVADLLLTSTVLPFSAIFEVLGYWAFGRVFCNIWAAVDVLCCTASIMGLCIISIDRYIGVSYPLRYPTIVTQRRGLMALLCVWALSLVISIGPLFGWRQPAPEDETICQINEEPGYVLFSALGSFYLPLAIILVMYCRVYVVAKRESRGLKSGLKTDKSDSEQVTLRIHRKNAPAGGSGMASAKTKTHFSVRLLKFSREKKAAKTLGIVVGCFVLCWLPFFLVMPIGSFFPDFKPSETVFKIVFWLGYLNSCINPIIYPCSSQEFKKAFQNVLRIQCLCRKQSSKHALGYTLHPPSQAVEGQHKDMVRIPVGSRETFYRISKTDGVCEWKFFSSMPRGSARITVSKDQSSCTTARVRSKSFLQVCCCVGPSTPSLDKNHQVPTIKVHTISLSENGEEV

`CC1=C(C#N)C(c2ccc3c(c2)c(NC(=O)c2ccccc2C)nn3C)C(C#N)=C(C)N1` [BAY-974]: the residual activity in test [1] was 100%; in test [3], 97%; in test [4], 89%; in test [5], 89%; in test [6], 99%; in test [7], 100%. Further, the residual activity is 100% in [8] and 99% in test [9]. The inhibition (as a rule, the relative decrease from the control value, in per cent) in [2] is 1.96%.

On to `CCc1ccccc1C(=O)Nc1n[nH]c2c(C)c(F)c(C3C(C#N)=C(C)N(C)C(C)=C3C#N)cc12` [BAY-3827], for which the residual activity in test [1] is 100%; in [3], 51%; in [4], 100%; in test [5], 81%; in [6] it was 16%; in test [7], 100%. Also, the residual activity in test [8] is 98%; in [9], 82%. For the same compound, in test [2], the inhibition is 6.85%.
